Laboratory results taken from publication PMC7547863 (Biochemistry, 2020).
No end group written: not given here.

How the values were obtained:
C. albicans ATCC90028 = experiment: CO-ADD antifungal screening, MIC; assay type: cell-based, Candida albicans; settings: yeast nitrogen base, 2.5 × 10^3 CFU/mL, 35 °C 24 h, OD530, n=2
[1] = tested on: human dermal microvascular endothelial cells (HDMEC); experiment: HDMEC cytotoxicity assay; assay type: cell-based; settings: concentration at 50% cytotoxicity
[2] = tested on: human embryonic kidney cells (HEK 293); experiment: HEK 293 cytotoxicity assay; assay type: cell-based; settings: concentration at 50% cytotoxicity, CO-ADD
E. coli = settings: ref [58]; cited from earlier work
S. aureus = settings: ref [58]; cited from earlier work

Substance	MIC C. albicans ATCC90028* (C. albicans ATCC90028) [µM]	HDMEC (CC50) [1] [µM]	HEK293 (CC50) [2] [µM]	MIC against E. coli (E. coli) [µM]	MIC against S. aureus (S. aureus) [µM]
KLLKLLKKLVGALG-NH2 [compound 15]	21	25	12		
KLLKLLKKLLKLLK-NH2 [Klk14, reference compound]	9	3	10		
GLFDIVKKVVGLLK-NH2 [compound 8]	>21	28			
KLLKLLKKLLKALG-NH2 [compound 17]	20	4	>20		
WWKRWKKLRRIFLML				4	4
KLLKLLKKLLGALG-NH2 [compound 16]	11	8	7		
GLFDIVKKVVGALK-NH2 [compound 9]	>22	103			
GLFDIVKKVVKLLK-NH2 [compound 7]	>20	236			
KLLKLVKKVVGALG-NH2 [compound 13]	>22	533			
GLFKLLKKLLKLLK-NH2 [compound 2]	>20	2	>19		
GLFDIVKKVVGALG-NH2 [Au2.2d2, reference compound]	>23	64			
